Tested on: MV-4-11 cells
Test: Gene expression microarray analysis (Affymetrix PrimeView) and GSEA
Assay type: cell-based, human
Design: RFU PODN (11730768_x_at) / Fold change /veh PODN (11730768_x_at) / RFU LINC00158 (11744669_a_at) / Fold change /veh LINC00158 (11744669_a_at) / RFU DUSP10 (11751237_a_at) / Fold change /veh DUSP10 (11751237_a_at) / RFU ID3 (11757404_x_at) / Fold change /veh ID3 (11757404_x_at) / RFU PLEKHG5 (11737974_s_at) / Fold change /veh PLEKHG5 (11737974_s_at) / RFU LRRC4B (11730491_at) / Fold change /veh LRRC4B (11730491_at) / RFU GIMAP4 (11747438_a_at) / Fold change /veh GIMAP4 (11747438_a_at) / RFU KRT8 (11758183_x_at) / Fold change /veh KRT8 (11758183_x_at) / RFU CNN1 (11734310_a_at) / Fold change /veh CNN1 (11734310_a_at) / RFU VPS37D (11726825_at) / Fold change /veh VPS37D (11726825_at) / RFU C10orf10 (11716522_x_at) / Fold change /veh C10orf10 (11716522_x_at) / RFU KIR2DL2 /// KIR2DL4 /// KIR2DL5A /// KIR2DL5B /// KIR2DS1 /// KIR2DS2 /// KIR2DS3 /// KIR2DS4 /// KIR3DL3 /// KIR3DL3 /// KIR3DS1 (11738374_at) / Fold change /veh KIR2DL2 /// KIR2DL4 /// KIR2DL5A /// KIR2DL5B /// KIR2DS1 /// KIR2DS2 /// KIR2DS3 /// KIR2DS4 /// KIR3DL3 /// KIR3DL3 /// KIR3DS1 (11738374_at) / RFU C1QL1 (11718748_at) / Fold change /veh C1QL1 (11718748_at) / RFU TMPRSS4 (11747572_a_at) / Fold change /veh TMPRSS4 (11747572_a_at) / RFU HAMP (11756126_x_at) / Fold change /veh HAMP (11756126_x_at) / RFU RNFT2 (11725882_a_at) / Fold change /veh RNFT2 (11725882_a_at) / RFU NR4A2 (11747474_a_at) / Fold change /veh NR4A2 (11747474_a_at) / RFU ABCC12 (11746883_a_at) / Fold change /veh ABCC12 (11746883_a_at) / RFU TMEM136 (11760407_x_at) / Fold change /veh TMEM136 (11760407_x_at) / RFU CLDN22 /// WWC2 (11732394_at) / Fold change /veh CLDN22 /// WWC2 (11732394_at) / RFU HLA-DPB1 (11760878_x_at) / Fold change /veh HLA-DPB1 (11760878_x_at) / RFU SPINT1 (11716480_a_at) / Fold change /veh SPINT1 (11716480_a_at) / RFU GAP43 (11754022_s_at) / Fold change /veh GAP43 (11754022_s_at) / RFU A4GNT (11735810_at) / Fold change /veh A4GNT (11735810_at) / RFU PRB3 (11715151_x_at) / Fold change /veh PRB3 (11715151_x_at) / RFU TUBB4B (11761932_at) / Fold change /veh TUBB4B (11761932_at) / RFU CAPN14 (11732068_a_at) / Fold change /veh CAPN14 (11732068_a_at) / RFU TMCC2 (11721928_a_at) / Fold change /veh TMCC2 (11721928_a_at) / RFU IRGQ (11745062_a_at) / Fold change /veh IRGQ (11745062_a_at) / RFU FAM174B (11720279_a_at) / Fold change /veh FAM174B (11720279_a_at) / RFU TMPRSS4 (11748680_a_at) / Fold change /veh TMPRSS4 (11748680_a_at) / RFU FAM212B (11763350_a_at) / Fold change /veh FAM212B (11763350_a_at) / RFU PLEKHG5 (11743358_a_at) / Fold change /veh PLEKHG5 (11743358_a_at) / RFU ZSCAN30 (11745921_a_at) / Fold change /veh ZSCAN30 (11745921_a_at) / RFU CMKLR1 (11741424_a_at) / Fold change /veh CMKLR1 (11741424_a_at) / RFU LOC101060620 /// MAPK8IP1 (11723275_at) / Fold change /veh LOC101060620 /// MAPK8IP1 (11723275_at) / RFU SPTSSB (11747773_x_at) / Fold change /veh SPTSSB (11747773_x_at) / RFU PRSS12 (11739890_at) / Fold change /veh PRSS12 (11739890_at) / RFU BIN1 (11741810_x_at) / Fold change /veh BIN1 (11741810_x_at) / RFU WNT11 (11732464_a_at) / Fold change /veh WNT11 (11732464_a_at) / RFU C10orf10 (11716521_a_at) / Fold change /veh C10orf10 (11716521_a_at) / RFU C5orf56 (11738089_at) / Fold change /veh C5orf56 (11738089_at) / RFU CYB561 (11721691_x_at) / Fold change /veh CYB561 (11721691_x_at) / RFU ANKRD19P (11752326_a_at) / Fold change /veh ANKRD19P (11752326_a_at) / RFU OR2T12 /// OR2T33 /// OR2T8 (11738714_s_at) / Fold change /veh OR2T12 /// OR2T33 /// OR2T8 (11738714_s_at) / RFU VCAN (11748164_a_at) / Fold change /veh VCAN (11748164_a_at) / RFU JSRP1 (11732532_at) / Fold change /veh JSRP1 (11732532_at) / RFU KRTAP10-11 (11738290_x_at) / Fold change /veh KRTAP10-11 (11738290_x_at) / RFU MYO3A (11730013_a_at) / Fold change /veh MYO3A (11730013_a_at) / RFU EBF3 (11725865_a_at) / Fold change /veh EBF3 (11725865_a_at) / RFU CAMK2N1 (11719241_x_at) / Fold change /veh CAMK2N1 (11719241_x_at) / RFU C5orf56 (11738088_a_at) / Fold change /veh C5orf56 (11738088_a_at) / RFU OLFML3 (11715873_a_at) / Fold change /veh OLFML3 (11715873_a_at) / RFU LOC100653217 /// NTM (11731650_a_at) / Fold change /veh LOC100653217 /// NTM (11731650_a_at) / RFU MAPK11 (11762145_a_at) / Fold change /veh MAPK11 (11762145_a_at) / RFU FIZ1 (11724087_x_at) / Fold change /veh FIZ1 (11724087_x_at) / RFU OASL (11726364_x_at) / Fold change /veh OASL (11726364_x_at) / RFU SOX15 (11748057_x_at) / Fold change /veh SOX15 (11748057_x_at) / RFU CD79A (11719716_a_at) / Fold change /veh CD79A (11719716_a_at) / RFU HIST1H1D (11736915_at) / Fold change /veh HIST1H1D (11736915_at) / RFU CASKIN2 (11723855_a_at) / Fold change /veh CASKIN2 (11723855_a_at) / RFU LOC730098 (11760151_x_at) / Fold change /veh LOC730098 (11760151_x_at) / RFU OR4N2 (11742367_at) / Fold change /veh OR4N2 (11742367_at) / RFU PRRT2 (11749266_a_at) / Fold change /veh PRRT2 (11749266_a_at) / RFU SNX32 (11753110_a_at) / Fold change /veh SNX32 (11753110_a_at) / RFU CDHR5 (11726645_a_at) / Fold change /veh CDHR5 (11726645_a_at) / RFU RCAN1 (11760418_a_at) / Fold change /veh RCAN1 (11760418_a_at) / RFU FAM167A (11723789_a_at) / Fold change /veh FAM167A (11723789_a_at) / RFU FAM26E (11764081_at) / Fold change /veh FAM26E (11764081_at) / RFU ISYNA1 (11749810_s_at) / Fold change /veh ISYNA1 (11749810_s_at) / RFU ACY1 (11761880_at) / Fold change /veh ACY1 (11761880_at) / RFU 11764098_at / Fold change /veh 11764098_at / RFU SAMD14 (11745864_x_at) / Fold change /veh SAMD14 (11745864_x_at) / RFU NPB (11741838_a_at) / Fold change /veh NPB (11741838_a_at) / RFU TMPRSS6 (11731388_a_at) / Fold change /veh TMPRSS6 (11731388_a_at) / RFU KRTAP10-2 (11738614_at) / Fold change /veh KRTAP10-2 (11738614_at) / RFU ARHGAP8 /// PRR5-ARHGAP8 (11727945_x_at) / Fold change /veh ARHGAP8 /// PRR5-ARHGAP8 (11727945_x_at) / RFU KRTAP5-7 /// NADSYN1 (11734609_at) / Fold change /veh KRTAP5-7 /// NADSYN1 (11734609_at) / RFU RASL12 (11751679_a_at) / Fold change /veh RASL12 (11751679_a_at) / RFU CDKN2B (11736163_a_at) / Fold change /veh CDKN2B (11736163_a_at) / RFU PRF1 (11729649_at) / Fold change /veh PRF1 (11729649_at) / RFU, ZNF638 /// ZNF638-IT1 / Fold change vs veh, ZNF638 /// ZNF638-IT1 / RFU, PANK3 / Fold change vs veh, PANK3 / RFU, SH3YL1 / Fold change vs veh, SH3YL1 / RFU, ZEB2 / Fold change vs veh, ZEB2 / RFU, NRIP1 / Fold change vs veh, NRIP1 / RFU, PTTG1IP / Fold change vs veh, PTTG1IP / RFU, CAPN2 / Fold change vs veh, CAPN2 / RFU, MED14 / Fold change vs veh, MED14 / RFU, SNORA58 / Fold change vs veh, SNORA58 / RFU, C1orf63 / Fold change vs veh, C1orf63 / RFU, LRRFIP1 / Fold change vs veh, LRRFIP1 / RFU, NDUFAF7 / Fold change vs veh, NDUFAF7 / RFU, SLC12A2 / Fold change vs veh, SLC12A2 / RFU, IBTK / Fold change vs veh, IBTK / RFU, ESF1 / Fold change vs veh, ESF1 / Fold change vs veh, TMEM50B / RFU, TAOK1 / Fold change vs veh, TAOK1 / RFU, ACBD3 / Fold change vs veh, ACBD3 / RFU, TMA16 / Fold change vs veh, TMA16 / RFU, RWDD3 / Fold change vs veh, RWDD3 / RFU, BCAT1 / Fold change vs veh, BCAT1 / RFU, EDEM3 / Fold change vs veh, EDEM3 / RFU, TMEM33 / Fold change vs veh, TMEM33 / RFU, WDR75 / Fold change vs veh, WDR75 / RFU, AHCTF1 / Fold change vs veh, AHCTF1 / RFU, TFRC / Fold change vs veh, TFRC / RFU, ZDHHC17 / Fold change vs veh, ZDHHC17 / RFU, NOM1 / Fold change vs veh, NOM1 / RFU, ARL8B / Fold change vs veh, ARL8B / RFU, ZBTB11 / Fold change vs veh, ZBTB11 / RFU, TAMM41 / Fold change vs veh, TAMM41 / RFU, KIAA1704 /// LOC100996395 / Fold change vs veh, KIAA1704 /// LOC100996395 / RFU, ING1 / Fold change vs veh, ING1 / RFU, TRMT61B / Fold change vs veh, TRMT61B / RFU, FUBP3 / Fold change vs veh, FUBP3 / RFU, TP53 / Fold change vs veh, TP53 / RFU, TNKS2 / Fold change vs veh, TNKS2 / RFU, ZFP14 / Fold change vs veh, ZFP14 / RFU, ACTR2 / Fold change vs veh, ACTR2 / RFU, PPP3R1 / Fold change vs veh, PPP3R1 / RFU, PIK3R1 / Fold change vs veh, PIK3R1 / RFU, HNRNPA1 / Fold change vs veh, HNRNPA1 / RFU, RNF170 / Fold change vs veh, RNF170 / RFU, ZNF28 / Fold change vs veh, ZNF28 / RFU, RNGTT / Fold change vs veh, RNGTT / RFU, OGT / Fold change vs veh, OGT / RFU, BRD1 / Fold change vs veh, BRD1 / RFU, MARS / Fold change vs veh, MARS / RFU, ZNF655 / Fold change vs veh, ZNF655 / RFU, FAHD1 / Fold change vs veh, FAHD1 / RFU, BDP1 / Fold change vs veh, BDP1 / RFU, LRRCC1 / Fold change vs veh, LRRCC1 / RFU, ARID1A / Fold change vs veh, ARID1A / RFU, ZNF146 / Fold change vs veh, ZNF146 / RFU, ZNF330 / Fold change vs veh, ZNF330 / RFU, GPN3 / Fold change vs veh, GPN3 / RFU, C9orf123 / Fold change vs veh, C9orf123 / RFU, N4BP2L2 / Fold change vs veh, N4BP2L2 / RFU, ARFIP1 / Fold change vs veh, ARFIP1 / RFU, FAM179B / Fold change vs veh, FAM179B / RFU, BCL10 / Fold change vs veh, BCL10 / RFU, UHRF1BP1L / Fold change vs veh, UHRF1BP1L / RFU, BET1 / Fold change vs veh, BET1 / RFU, CNOT2 / Fold change vs veh, CNOT2 / RFU, ZNF268 / Fold change vs veh, ZNF268 / Fold change vs veh, ZNF507 / RFU, DGCR2 / Fold change vs veh, DGCR2 / RFU, WDSUB1 / Fold change vs veh, WDSUB1 / Fold change vs veh, HSP90B1 /// MIR3652 / RFU, ADSS / Fold change vs veh, ADSS / RFU, GK / Fold change vs veh, GK / RFU, ZNF148 / Fold change vs veh, ZNF148 / RFU, TAF9 / Fold change vs veh, TAF9 / RFU, SLC1A5 / Fold change vs veh, SLC1A5 / RFU, SLMO2 / Fold change vs veh, SLMO2 / RFU, ABCC4 / Fold change vs veh, ABCC4 / RFU, LOC101060439 /// RAP1B / Fold change vs veh, LOC101060439 /// RAP1B / RFU, RFX7 / Fold change vs veh, RFX7 / RFU, GTPBP10 / Fold change vs veh, GTPBP10 / RFU, CNEP1R1 / Fold change vs veh, CNEP1R1 / RFU, BIVM-ERCC5 /// ERCC5 / Fold change vs veh, BIVM-ERCC5 /// ERCC5 / RFU, ILF3 / Fold change vs veh, ILF3 / RFU 11762660_at / Fold change /veh 11762660_at / RFU VCAN (11757783_s_at) / Fold change /veh VCAN (11757783_s_at) / RFU DDX43 (11728927_at) / Fold change /veh DDX43 (11728927_at) / RFU KRT8 (11758188_x_at) / Fold change /veh KRT8 (11758188_x_at) / RFU NKD1 (11759106_at) / Fold change /veh NKD1 (11759106_at) / RFU SRD5A1 (11742802_a_at) / Fold change /veh SRD5A1 (11742802_a_at) / RFU TPSAB1 /// TPSB2 (11721975_s_at) / Fold change /veh TPSAB1 /// TPSB2 (11721975_s_at) / RFU GSTM3 (11746129_a_at) / Fold change /veh GSTM3 (11746129_a_at) / RFU IL23R (11737362_x_at) / Fold change /veh IL23R (11737362_x_at) / RFU TMEM51 (11727254_a_at) / Fold change /veh TMEM51 (11727254_a_at) / RFU PIWIL2 (11732686_x_at) / Fold change /veh PIWIL2 (11732686_x_at) / RFU ORM1 (11744905_x_at) / Fold change /veh ORM1 (11744905_x_at) / RFU CCDC152 (11743942_at) / Fold change /veh CCDC152 (11743942_at) / RFU ECM1 (11717891_a_at) / Fold change /veh ECM1 (11717891_a_at) / RFU IL23R (11748794_a_at) / Fold change /veh IL23R (11748794_a_at) / RFU TNFAIP8L3 (11732012_x_at) / Fold change /veh TNFAIP8L3 (11732012_x_at) / RFU MBOAT4 (11741988_at) / Fold change /veh MBOAT4 (11741988_at) / RFU 11764193_at / Fold change /veh 11764193_at / RFU TMEM53 (11763286_at) / Fold change /veh TMEM53 (11763286_at) / RFU MAGEB2 (11727129_at) / Fold change /veh MAGEB2 (11727129_at) / RFU TMEM200A (11744735_a_at) / Fold change /veh TMEM200A (11744735_a_at) / RFU CCDC152 (11751479_a_at) / Fold change /veh CCDC152 (11751479_a_at) / RFU FAM211A (11726209_a_at) / Fold change /veh FAM211A (11726209_a_at) / RFU RGS16 (11746705_a_at) / Fold change /veh RGS16 (11746705_a_at) / RFU VCAN (11755009_s_at) / Fold change /veh VCAN (11755009_s_at) / RFU RHOB (11743442_s_at) / Fold change /veh RHOB (11743442_s_at) / RFU RGS16 (11720943_a_at) / Fold change /veh RGS16 (11720943_a_at) / RFU RGS16 (11720944_at) / Fold change /veh RGS16 (11720944_at) / RFU, VPS4B / Fold change vs veh, VPS4B / RFU, CREB1 / Fold change vs veh, CREB1 / RFU, DNAJC13 / Fold change vs veh, DNAJC13 / RFU, GNAQ / Fold change vs veh, GNAQ / RFU, CDK5R1 / Fold change vs veh, CDK5R1 / RFU, ZRANB3 / Fold change vs veh, ZRANB3 / RFU, CUL4A / Fold change vs veh, CUL4A / RFU, CCNY / Fold change vs veh, CCNY / RFU, UFL1 / Fold change vs veh, UFL1 / RFU, COG3 / Fold change vs veh, COG3 / RFU, DIAPH2 / Fold change vs veh, DIAPH2 / RFU, SKA2 / Fold change vs veh, SKA2 / RFU, AFF3 / Fold change vs veh, AFF3 / RFU, LMF1 / Fold change vs veh, LMF1 / RFU, IPO11 / Fold change vs veh, IPO11 / RFU, DFFB / Fold change vs veh, DFFB / RFU, FOXP1 / Fold change vs veh, FOXP1 / RFU, CARD8 / Fold change vs veh, CARD8 / RFU, STRN3 / Fold change vs veh, STRN3 / RFU, ADK / Fold change vs veh, ADK / RFU, RASSF2 / Fold change vs veh, RASSF2 / RFU, WIPF1 / Fold change vs veh, WIPF1 / RFU, LARP1B / Fold change vs veh, LARP1B / RFU, RASA1 / Fold change vs veh, RASA1 / RFU, RB1 / Fold change vs veh, RB1 / RFU, PPFIA1 / Fold change vs veh, PPFIA1 / RFU, MAT2A / Fold change vs veh, MAT2A / RFU, CCT5 / Fold change vs veh, CCT5 / RFU, WDR92 / Fold change vs veh, WDR92 / RFU, CUX1 / Fold change vs veh, CUX1 / RFU, TTC7A / Fold change vs veh, TTC7A / RFU, TMEM135 / Fold change vs veh, TMEM135 / RFU, DEPTOR / Fold change vs veh, DEPTOR / RFU, CPM / Fold change vs veh, CPM / RFU, DNAJB6 / Fold change vs veh, DNAJB6 / RFU, CACNA2D3 / Fold change vs veh, CACNA2D3 / RFU, DTX4 / Fold change vs veh, DTX4 / RFU, TFCP2 / Fold change vs veh, TFCP2 / RFU, GMCL1 /// GMCL1P1 / Fold change vs veh, GMCL1 /// GMCL1P1 / RFU, AEBP2 / Fold change vs veh, AEBP2 / RFU, SNHG1 /// SNORD22 /// SNORD25 /// SNORD26 /// SNORD27 /// SNORD28 /// SNORD29 /// SNORD31 / Fold change vs veh, SNHG1 /// SNORD22 /// SNORD25 /// SNORD26 /// SNORD27 /// SNORD28 /// SNORD29 /// SNORD31 / Fold change (Aza/veh), C12orf56 (ProbeSet 11735607_a_at) / Fold change (ACY-1035/veh), C12orf56 (ProbeSet 11735607_a_at) / Fold change (Aza/veh), FGFR1OP (ProbeSet 11751329_s_at) / Fold change (ACY-1035/veh), FGFR1OP (ProbeSet 11751329_s_at) / Fold change (Aza/veh), VPS36 (ProbeSet 11739960_a_at) / Fold change (ACY-1035/veh), VPS36 (ProbeSet 11739960_a_at) / RFU SYPL1 (11715823_x_at) / Fold change /veh SYPL1 (11715823_x_at) / RFU IGFBP7 (11715501_s_at) / Fold change /veh IGFBP7 (11715501_s_at) / RFU REEP3 (11722064_at) / Fold change /veh REEP3 (11722064_at) / RFU IGLL1 (11728026_x_at) / Fold change /veh IGLL1 (11728026_x_at): dose or concentration left out as unconfirmed
Conditions: ProbeSet 11724526_at; LIST B

With Nc1ncn([C@@H]2O[C@H](CO)[C@@H](O)[C@H]2O)c(=O)n1 [azacitidine] the “Fold change vs veh, FAHD1” value was 0.84.

— paper PMC5218480 (PLoS ONE, 2017)
